21 molecules from patent US20050208582A1, “Pyrazole compounds and pharmaceutical compositions comprising the compound” (priority 2002, published 2005) can be followed below.

The target of one test is T1, ERK2 (Homo sapiens, UniProt P28482).
T1 construct: purchased Upstate Biotech
T1 sequence (P28482 whole entry, species assumed): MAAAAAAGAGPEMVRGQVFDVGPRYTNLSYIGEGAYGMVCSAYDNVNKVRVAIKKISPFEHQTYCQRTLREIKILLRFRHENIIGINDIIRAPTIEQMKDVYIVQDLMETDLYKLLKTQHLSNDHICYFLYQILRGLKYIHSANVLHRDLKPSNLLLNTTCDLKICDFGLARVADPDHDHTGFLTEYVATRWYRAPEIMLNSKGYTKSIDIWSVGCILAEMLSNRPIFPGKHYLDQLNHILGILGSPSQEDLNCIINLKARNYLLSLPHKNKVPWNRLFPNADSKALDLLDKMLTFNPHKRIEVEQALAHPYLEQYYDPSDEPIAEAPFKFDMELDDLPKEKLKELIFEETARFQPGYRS
In words: Measurement of ERK2 inhibition (ELISA, myelin basic protein substrate). Conditions: concentration at which ERK2 enzyme activity was inhibited to 50%; room temperature, 30 minutes; read-out: ERK2 inhibitory activity. In kind it is biochemical. The method, then: Measurement of ERK2 Inhibition
A plate for ELISA was coated for 1 hour with 1 μg/well myelin basic protein (available from Upstate Biotech) serving as a reaction substrate. Following washing operation with PBS-Tween, blocking with 1% BSA-PBS was conducted for 3 hours. After washing with PBS-Tween, 25 μl of a reaction solution (20 mM MOPS, 25 mM β-glycerphosphoric acid, 5 mM EGTA, 1 mM orthovanadic acid, 1 mM dithiothreitol), 5 μl of a dilution sample of compound from dilution series which was prepared using 1% DMSO-1% BSA solution, 10 μl of 0.5 μg/ml ERK2 (available from Upstate Bioech), 10 μl of 500 μM ATP were added to made up to 50 μl, and allowed to react at room temperature for 30 minutes. 100 μl of 200 mM EDTA (pH 8.0) was added to stop the reaction, which was then washed with PBS-Tween. This was then added with mouse anti-phospho-myelin basic protein antibody (available from Usptate Biotech), allowed to react for 1 hour, and washed with PBS-Tween, thereafter added with anti-mouse IgG antibody combined with horseradish peroxidase (available from ICN), allowed to react for 1 hour, and washed with PBS-Tween. Subsequently 100 μl of a TMB peroxidase substrate solution (available from KPL) was added, coloring reaction was allowed for 10 minutes, and then measurement at OD 450 nm was conducted. […]
As to `O=C(NCc1ccco1)c1cc2c(/C=C/c3cccc(F)c3)n[nH]c2cc1F` [Example 103, 6-Fluoro-3-[(E)-2-(3-fluorophenyl)-vinyl]-1H-indazole-5-carboxylic Acid (furan-2-ylmethyl)-amide], the IC50 stood at 22.1 µM. In the case of `O=C(NCc1ccco1)c1ccc2[nH]nc(/C=C/c3cccc(F)c3)c2c1` [Reference example 1, 3-[(E)-2-(3-fluorophenyl)-vinyl]-1H-indazole-5-carboxylic acid (furan-2-ylmethyl)-amide, reference compound], the IC50 was 0.71 µM.

For another test, the target named is T2, Human JNK 3 (Homo sapiens, UniProt P53779).
T2 construct: made in house; host or cells: Escherichia coli
T2 sequence (P53779 whole entry): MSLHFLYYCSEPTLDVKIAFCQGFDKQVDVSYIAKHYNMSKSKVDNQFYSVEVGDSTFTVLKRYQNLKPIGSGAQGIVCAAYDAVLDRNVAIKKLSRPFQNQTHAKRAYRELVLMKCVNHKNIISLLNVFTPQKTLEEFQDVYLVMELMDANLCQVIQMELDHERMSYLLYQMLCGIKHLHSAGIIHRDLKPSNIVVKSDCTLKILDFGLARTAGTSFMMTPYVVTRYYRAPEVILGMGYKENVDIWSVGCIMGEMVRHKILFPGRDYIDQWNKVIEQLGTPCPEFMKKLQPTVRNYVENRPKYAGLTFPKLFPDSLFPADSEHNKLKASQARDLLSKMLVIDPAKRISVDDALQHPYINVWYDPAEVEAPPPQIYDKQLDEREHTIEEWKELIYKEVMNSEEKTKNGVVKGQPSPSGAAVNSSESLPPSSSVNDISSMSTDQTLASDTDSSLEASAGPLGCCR
In words: Measurement of JNK 3 inhibition (GST-JNK3, GST-c-Jun substrate, [γ-33P]ATP, SPA beads). In kind it is biochemical. The note with it: 50% inhibitory concentration on the enzymatic activity of JNK; 3.33 μM ATP in substrate solution, 30 minutes. The method, then:
Measurement of JNK 3 Inhibition
Human JNK 3 was expressed as a fusion protein (GST-JNK 3) with glutathione S-transferase (GST) in Escherichia coli and was purified using glutathione Sepharose 4B beads. The amino acid sequence 1-169 of c-Jun was prepared as a fusion protein (GST-c-Jun) with GST in Escherichia coli, was purified using glutathione Sepharose 4B beads and was used as a substrate. A test compound was solved in 100% dimethyl sulfoxide into 10 mM and was then further diluted with 10% aqueous dimethyl sulfoxide solution to yield a dilution series. In 96-well OPTI plate (available from ParkinElmer Life Sciences), 20 μl of diluted compound, 30 μl of substrate solution (1.2 μg GST-c-Jun, 0.2 μCi [γ-^33P]ATP, 25 mM HEPES pH=7.5, 10 mM MgAcetate, 3.33 μM ATP) and 50 μl of enzyme solution (0.04 μg GST-JNK3, 25 mM HEPES pH=7.5, 10 mM Mg Acetate) were mixed per 1-well, made up to 100 μl, and allowed to react for 30 minutes. After terminating the reaction by adding 100 μl of a reaction terminator (80 mM ATP, 50 mg/ml glutathione SPA beads (available from Amersham Pharmacia Biotech)), the reaction mixture was shaken for 30 minutes. The mixture was centrifuged at room temperature at 1000×g for 5 minutes, and the emission intensity thereof was determined on a TopCount™ illuminator (available from available from PerkinElmer Life Sciences). The activity is expressed by the 50% inhibitory concentration on the enzymatic activity of JNK, i.e., IC50 (nM).
Molecule `Fc1ccc(/C=C/c2n[nH]c3c(F)cc(-c4ncc[nH]4)cc23)cc1` [Example 603, 7-Fluoro-3-[(E)-2-(4-fluorophenyl)-vinyl]-5-(1H-imidazol-2-yl)-1H-indazole] yielded an IC50 of 0.117 µM. The same measure, in the same setting: the same measure for `NC(=O)CCOc1c(C(=O)N[C@H](CO)c2ccccc2)ccc2[nH]nc(/C=C/c3ccc(F)cc3)c12` [Example 790, 4-(2-Carbamoylethoxy)-3-[(E)-2-(4-fluorophenyl)-vinyl]-1H-indazole-5-carboxylic Acid [(1S)-2-hydroxy-1-phenyl-ethyl]-amide]: 0.07 µM. The same measure, in the same setting: the same measure for `COc1c(-c2nc(C)n[nH]2)ccc2[nH]nc(/C=C/c3cccc(F)c3)c12` [Example 392, 3-[(E)-2-(3-Fluorophenyl)-vinyl]-4-methoxy-5-(5-methyl-2H-[1,2,4]triazol-3-yl)-1H-indazole]: 0.403 µM; for `O=C(NCc1ccco1)c1cc2c(/C=C/c3cccc(F)c3)n[nH]c2cn1` [Example 466]: 0.578 µM; for `O=C(NCc1ccco1)c1ccc2[nH]nc(/C=C/c3cccs3)c2c1F` [Example 213, 4-Fluoro-3-[(E)-2-(thiophen-2-yl)-vinyl]-1H-indazole-5-carboxylic Acid (furan-2-ylmethyl)-amide]: 0.117 µM. Still for that read-out and setting: the same measure for `C[C@H](NC(=O)c1ccc2[nH]nc(/C=C/c3ccc(F)cc3)c2c1OCCCO)C(N)=O` [Example 786, 3-[(E)-2-(4-Fluorophenyl)-vinyl]-4-(3-hydroxypropoxy)-1H-indazole-5-carboxylic Acid [(1S)-1-carbamoyl-ethyl]-amide]: 0.175 µM. Regarding `O=C(NCc1cccnc1)c1cc2c(/C=C/c3cccc(F)c3)n[nH]c2cc1F` [Example 106, 6-Fluoro-3-[(E)-2-(3-fluorophenyl)-vinyl]-1H-indazole-5-carboxylic Acid (pyridine-3-ylmethyl)-amide], the IC50 stood at 0.195 µM. `O=C(NC1CC1)c1ccc2[nH]nc(/C=C/c3ccc(F)cc3)c2c1OCCO` [Example 353, 3-[(E)-2-(4-Fluorophenyl)-vinyl]-4-(2-hydroxyethoxy)-1H-indazole-5-carboxylic Acid Cyclopropylamide] returned an IC50 of 0.148 µM. The same measure, in the same setting: the same measure for `O=C(Nc1cc(F)c2[nH]nc(/C=C/c3cccnc3)c2c1)c1ccco1` [Example 136, Furan-2-carboxylic Acid [7-fluoro-3-(2-pyridin-3-yl-vinyl)-1H-indazol-5-yl]-amide]: 0.167 µM; for `COc1c(C(=O)NCc2ncco2)ccc2[nH]nc(/C=C/c3ccc(F)cc3F)c12` [Example 992, 3-[(E)-2-(2,4-Difluorophenyl)-vinyl]-4-methoxy-1H-indazole-5-carboxylic Acid (oxazol-2-ylmethyl)amide]: 0.107 µM. For `COc1cc(/C=C/c2n[nH]c3cc(F)c(NC(=O)CC4CC4)cc23)ccc1F` [Example 1003, 2-Cyclopropyl-N-{6-fluoro-3-[(E)-2-(4-fluoro-3-methoxyphenyl)-vinyl]-1H-indazol-5-yl}acetamide], the IC50 is 0.122 µM. For `NCc1nnc(-c2cc(F)c3[nH]nc(/C=C/c4ccc(F)cc4)c3c2)[nH]1` [Example 573, C-(5-{7-Fluoro-3-[(E)-2-(4-fluorophenyl)-vinyl]-1H-indazol-5-yl}-4H-[1,2,4]triazol-3-yl)-methylamine], the IC50 worked out at 0.066 µM. `O=C(Nc1ccc2[nH]nc(/C=C/c3ccc(F)cc3)c2n1)c1ccco1` [Example 495, Furan-2-carboxylic Acid {3-[(E)-2-(4-fluorophenyl)-vinyl]-1H-pyrazolo[4,3-b]pyridin-5-yl}-amide] returned an IC50 of 0.118 µM. Turning to `CC(C)[C@@H](CO)NC(=O)c1cc(F)c2[nH]nc(/C=C/c3cccnc3)c2c1` [Example 128, 7-Fluoro-3-[(E)-2-(pyridin-3-yl)-vinyl]-1H-indazole-5-carboxylic acid [(1S)-1-hydroxymethyl-2-methylpropyl]-amide], the IC50 turned out to be 0.117 µM.

Take `CCCNC(=O)Nc1cc2c(/C=C/c3ccc(F)cc3)n[nH]c2cc1F` [Example 1056, 1-{6-Fluoro-3-[(E)-2-(4-fluorophenyl)-vinyl]-1H-indazol-5-yl}-3-propyl-urea]: the IC50 worked out at 0.132 µM. As for `O=C(NC(CO)c1ccccc1)c1cc2c(-c3ccc4ccccc4c3)n[nH]c2s1` (centres unmarked) [Example 522, 3-(Naphthalen-2-yl)-1H-thieno[2,3-c]pyrazol-5-carboxylic Acid (2-hydroxy-1-phenylethyl)amide], the IC50 was found to be 0.146 µM. `CNCc1nnc(-c2cc3c(/C=C/c4ccc(F)cc4)n[nH]c3cc2F)[nH]1` [Example 571, (5-{6-Fluoro-3-[(E)-2-(4-fluorophenyl)-vinyl]-1H-indazol-5-yl}-4H-[1,2,4]triazol-3-ylmethyl)-methyl-amine] displayed an IC50 of 0.063 µM.

Turning to `O=C(NCc1ccco1)c1cnc2[nH]nc(-c3ccc4ccccc4c3)c2c1` [Example 472, 3-(Naphthalen-2-yl)-1H-pyrazolo[3,4-b]pyridine-5-carboxylic Acid (furan-2-ylmethyl)-amide], the IC50 was determined as 0.505 µM. `O=C(NC1CC1)c1ccc2[nH]nc(-c3cccc(F)c3)c2n1` [Example 56, 3-(3-Fluorophenyl)-1H-pyrazolo[4,3-b]pyridine-5-carboxylic Acid Cyclopropylamide] had an IC50 of 0.234 µM.

Staying with this test, now noted: selectivity table, compared with ERK2; read-out: JNK3 inhibitory activity.
Consider `O=C(NCc1ccco1)c1cc2c(/C=C/c3cccc(F)c3)n[nH]c2cc1F` [Example 103, 6-Fluoro-3-[(E)-2-(3-fluorophenyl)-vinyl]-1H-indazole-5-carboxylic Acid (furan-2-ylmethyl)-amide], for which the IC50 is 0.055 µM. In the case of `O=C(NCc1ccco1)c1ccc2[nH]nc(/C=C/c3cccc(F)c3)c2c1` [Reference example 1, 3-[(E)-2-(3-fluorophenyl)-vinyl]-1H-indazole-5-carboxylic acid (furan-2-ylmethyl)-amide, reference compound], the IC50 amounted to 0.092 µM.
